Measured values as given in US6358921B1, “Antimicrobial peptide compositions and method” (priority 1996, dated 2002).
Read-outs that look alike come from different tables or passages of the source. Where a SMILES comes first, the peptide text is derived from it. [ ]: non-standard residue; d: D form. Orn = NCCC[C@H](N)C(=O)O

Legend:
[1] = Displacement of dansyl-polymyxin from LPS; assay type: binding, P. aeruginosa
Procedure, shortened: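 Peptides titrated into 3 μg/mL P. aeruginosa LPS with 2.5 μM dansyl-polymyxin (~90% site saturation) in 5 mM sodium HEPES, pH 7.0; fluorescence decrease recorded. I50 (50% probe displacement) taken from the x-intercept of a double-reciprocal plot of percent inhibition versus inhibitor concentration.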

P. aeruginosa H187 = assay type: cell-based, Pseudomonas aeruginosa; details: for Antibiotic activity (Table 11, ring analogs): P. aeruginosa H187, unit from Table 10; for Minimum Inhibitory Concentration (activity): H187
Procedure, shortened: (§1)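 Peptides are tested by liquid microdilution against strains such as Salmonella C610, E. faecalis ATCC 29212 and sensitive P. aeruginosa H188, with 5×10^5 CFU/mL in LB, overnight at 37 °C. Where a therapeutic index is given, it divides the 4 h complete-hemolysis concentration by the MIC.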

human erythrocytes = assay: Hemolytic activity; assay type: cell-based
Protocol: Serial dilutions of the peptides in saline were prepared in round bottom microtitre plates using 100 μL volumes. Red blood cells were diluted with saline to 1/25 packed volume of cells and 50 μL added to each well. Plates were incubated with rocking at 37° C., and the concentration required for complete lysis determined visually after 4 h.

E. coli DC2 = assay type: cell-based, Escherichia coli; details: for Antibiotic activity (Table 11, ring analogs): E. coli DC2, unit from Table 10; for Minimum Inhibitory Concentration (activity): DC2
Procedure, shortened: as §1

P. aeruginosa H188 = assay type: cell-based, Pseudomonas aeruginosa; details: for Antibiotic activity (Table 11, ring analogs): P. aeruginosa H188, unit from Table 10; for Minimum Inhibitory Concentration (activity): H188
Procedure, shortened: (§2)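 Antimicrobial activity is measured by a liquid-broth assay in LB at 37 °C overnight, starting from 5×10^5 CFU/mL. Values are minimal inhibitory concentrations, i.e. the lowest concentration that stops growth.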

yeast = assay: Antibiotic activity, yeast; assay type: cell-based; details: average activity calculated from Table II
Description: (§3) The following bacterial strains were utilized: Escherichia coli UB1005 (wt) and its antibiotic supersusceptible derivative DC2 (Clark, 1984); Excherichia coli SC9251 and its polymixin B rasistant mutant pmrA SC9252 (Peterson, et al., 1987) Pseudomonas aeruginosa H187 (wt) (Angus, et al., 1987) and its antibiotic-sensitive derivative H188 (Zimmerman, W, Antimicrob. Agents Chemother. 18: 94-100, 1980); methicillin sensitive Staphylococcus aureus K147 (Kreiswirth, et al., 1983); Staphylococcus aureus SAP0017, a methicillin resistant clinical isolate from Dr. A. Chow (University of British Columia); Bacillus subtilis, an environmental wt lab strain. Enterococcus faecalis are ATCC 29212 cells and Staphylococcus epidermidis was a clinical isolate from Dr. D. Speert (University of British Columbia). Antifungal activity was tested using a clinical lab isolate of Candida albicans. Salmonella typhinurium C57 and C610 (Fields, P.I., et al., Science 243: 1059-1062 (1989) Corynebacterium xerosis was an environmental isolate (University of British Columbia).
(§4) It is now apparent that agar-based assays severely underestimate antifungal activity as well as activity against gram negative microorganisms (Kondejewski, et al., 1996). Consequently, in the studies reported herein, a liquid-broth method was used to measure the antibiotic properties of the peptides. […] Briefly, cells were grown overnight at 37° C. in LB and diluted in the same medium. Serial dilutions of antibiotics were added to the microtitre plates in a volume of 100 μL followed by 10 μL of bacteria to give a final inoculum of 5×10^5 CFU/mL. Plates were incubated at 37° C. overnight and MICs determined as the lowest antibiotic concentration that inhibited growth.
(§5) The results from antimicrobial and hemolytic assays are combined to provide a “Therapeutic Index” (TI) for each peptide with respect to individual microorganisms. As reported herein, the TI is calculated as the hemolytic activity divided by the antimicrobial activity. The TI thus is a measure of specificity of the particular peptide for microbial membranes as opposed to human blood cell membranes. In the present studies, antimicrobial activities are reported as minimum inhibitory concentrations (MIC)—the lowest concentration of peptide (μg/ml) found to inhibit growth of the particular microbe. Hemolytic activity is reported as the concentration of peptide that effected complete lysis of blood cells after four hours. Thus, in the context of the present invention high TI values indicate microbial specificity and relative lack of toxicity.

E. coli UB1005 = assay type: cell-based, Escherichia coli; details: for Antibiotic activity (Table 11, ring analogs): E. coli UB1005, unit from Table 10; for Minimum Inhibitory Concentration (activity): UB1005
Procedure, shortened: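 Liquid-broth rather than agar method. Organisms: clinical isolates (C. albicans, S. epidermidis), environmental C. xerosis, wild-type E. coli UB1005.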

[2] = system: gram negative microorganisms; assay type: cell-based; details: for Antibiotic activity, gram-negative: average activity calculated from Table II
Description: as §3, §4, §5

[3] = system: gram positive microorganisms; assay type: cell-based; details: average activity calculated from Table II
Description: as §3, §4, §5

E. coli SC9252 = assay: MIC, liquid-broth microtitre dilution; assay type: cell-based, Escherichia coli; details: unit from Table 10
Description: as §3, §4

E. coli SC9251 = assay: MIC, liquid-broth microtitre dilution; assay type: cell-based, Escherichia coli; details: unit from Table 10
Description: as §3, §4

C. Albicans = assay type: cell-based, Candida albicans
Procedure, shortened: (§6)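 Growth inhibition was scored after overnight culture at 37 °C in LB with peptide serial dilutions (inoculum 5×10^5 CFU/mL); MICs were the lowest inhibitory concentrations. Test strains were E. coli UB1005 (wild type), C. xerosis (environmental), and C. albicans and S. epidermidis (clinical isolates).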

S. typhinurium C610 = assay type: cell-based, Salmonella typhinurium
Procedure, shortened: as §2

S. typhinurium C587 = assay type: cell-based, Salmonella typhinurium
Procedure, shortened: as §2

E. faecalis = assay type: cell-based, Enterococcus faecalis
Procedure, shortened: as §2

S. epidermidis = assay type: cell-based, Staphylococcus epidermidis
Procedure, shortened: as §6

B. subtilis = assay type: cell-based, Bacillus subtilis
Procedure, shortened: as §2

S. aureus SAP0017 = assay type: cell-based, Staphylococcus aureus
Procedure, shortened: (§7)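 Liquid-broth microdilution: overnight LB cultures at 37 °C, diluted to a final inoculum of 5×10^5 CFU/mL with serial peptide dilutions, incubated overnight at 37 °C. MIC (μg/ml) is the lowest concentration that inhibited growth. Therapeutic index is the concentration giving complete hemolysis at 4 h divided by the MIC.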

S. aureus K147 = assay type: cell-based, Staphylococcus aureus
Procedure, shortened: as §7

C. xeroses = assay type: cell-based, Corynebacterium xerosis
Procedure, shortened: as §6

[4] = Table 10, read-out: LPS binding activity: peptide concentration to displace 50% of dansyl-polymyxin from LPS
[5] = read-out: LPS binding affinity: peptide concentration to displace 50% of dansyl-polymyxin B from LPS, Tables 1, 4, 7

SMILES	IC50 [1, 4]	Antibiotic activity (Table 11, ring analogs) (P. aeruginosa H187)	Hemolytic activity (human erythrocytes)	Antibiotic activity (Table 11, ring analogs) (E. coli DC2)	Antibiotic activity (Table 11, ring analogs) (P. aeruginosa H188)	Antibiotic activity, yeast (yeast)	Antibiotic activity (Table 11, ring analogs) (E. coli UB1005)	Antibiotic activity, gram-negative [2]	Antibiotic activity, gram-positive [3]	Antibiotic activity (Table 11, ring analogs) (E. coli SC9252)	Antibiotic activity (Table 11, ring analogs) (E. coli SC9251)	IC50 [1, 5]	Minimum Inhibitory Concentration (activity) (P. aeruginosa H187)	Hemolytic activity: peptide concentration for 100% lysis of human erythrocytes (human erythrocytes)	Minimum Inhibitory Concentration (activity) (E. coli DC2)	Minimum Inhibitory Concentration (activity) (P. aeruginosa H188)	Minimum Inhibitory Concentration (activity) (S. typhinurium C610)	Minimum Inhibitory Concentration (activity) (S. typhinurium C587)	Minimum Inhibitory Concentration (activity) (E. coli UB1005)	Minimum Inhibitory Concentration (activity) (E. faecalis)	further results
CC(C)C[C@@H]1NC(=O)[C@H](CCCN)NC(=O)[C@H](C(C)C)NC(=O)[C@@H]2CCCN2C(=O)[C@@H](Cc2ccccc2)NC(=O)[C@H](CC(C)C)NC(=O)[C@H](CCCN)NC(=O)[C@H](C(C)C)NC(=O)[C@H](CCCN)NC(=O)[C@@H]2CCCN2C(=O)[C@@H](Cc2ccccc2)NC(=O)[C@H](CCCN)NC1=O [GS12FO, FPVOLOFPOVOL] (cyclo(L[Orn][dF]P[Orn]V[Orn]L[dF]PV[Orn]))	105 µM	50 μg/ml	160 µg/mL	5 μg/ml	5 μg/ml	16 µg/mL	22 μg/ml	16 µg/mL	120 µg/mL	9 μg/ml	6 μg/ml	–	–	–	–	–	–	–	–	–	–
CC(C)C[C@@H]1NC(=O)[C@H](CCCN)NC(=O)[C@H](CC(C)C)NC(=O)[C@@H]2CCCN2C(=O)[C@@H](Cc2ccccc2)NC(=O)[C@H](CC(C)C)NC(=O)[C@H](CCCN)NC(=O)[C@H](CC(C)C)NC(=O)[C@H](CCCN)NC(=O)[C@@H]2CCCN2C(=O)[C@@H](Cc2ccccc2)NC(=O)[C@H](CCCN)NC1=O [GS12FO/LL, FPLOLOFPOLOL] (cyclo(L[Orn]L[Orn][dF]P[Orn]L[Orn]L[dF]P))	44 µM	63 μg/ml	170 µg/mL	5 μg/ml	8 μg/ml	16 µg/mL	16 μg/ml	18 µg/mL	42 µg/mL	9 μg/ml	8 μg/ml	–	–	–	–	–	–	–	–	–	–
CC(C)C[C@@H]1NC(=O)[C@H](CCCN)NC(=O)[C@H](C(C)C)NC(=O)[C@@H]2CCCN2C(=O)[C@@H](Cc2ccccc2)NC(=O)[C@H](CC(C)C)NC(=O)[C@H](CCCN)NC(=O)[C@H](C(C)C)NC(=O)[C@@H]2CCCN2C(=O)[C@@H](Cc2ccccc2)NC1=O [GS, cyclo(Val-Orn-Leu-D-Phe-Pro)2, reference compound] (cyclo(V[Orn]L[dF]PV[Orn]L[dF]P))	–	25 μg/ml	–	9 μg/ml	16 μg/ml	–	19 μg/ml	–	–	5 μg/ml	13 μg/ml	295 µM	25 µg/mL	12.5 µg/mL	3.1 µg/mL	6.2 µg/mL	9 µg/mL	18 µg/mL	9 µg/mL	–	Minimum Inhibitory Concentration (activity) (C. Albicans; C. Albicans): 6.2 µg/mL; MIC against gram-negative organisms, particularly E. coli and P. aeruginosa [2]: 3 to 12.5 µg/mL
CC(C)C[C@@H]1NC(=O)[C@H](CCCCN)NC(=O)[C@H](CC(C)C)NC(=O)[C@@H]2CCCN2C(=O)[C@@H](Cc2ccccc2)NC(=O)[C@H](CC(C)C)NC(=O)[C@@H](CCCCN)NC(=O)[C@H](CC(C)C)NC(=O)[C@H](CCCCN)NC(=O)[C@H](CC(C)C)NC(=O)[C@@H]2CCCN2C(=O)[C@@H](Cc2ccccc2)NC(=O)[C@H](CC(C)C)NC(=O)[C@H](CCCCN)NC1=O [Y2/F2 V3/L3]	–	–	–	–	–	–	–	–	–	–	–	25 µM	12.5 µg/mL	–	2 µg/mL	3.1 µg/mL	12.5 µg/mL	35 µg/mL	9 µg/mL	1.5 µg/mL	Minimum Inhibitory Concentration (activity) (S. epidermidis): 2 µg/mL; Minimum Inhibitory Concentration (activity) (B. subtilis): 6.2 µg/mL; Minimum Inhibitory Concentration (activity) (C. Albicans): 3.1 µg/mL; Hemolytic activity: peptide concentration for 100% lysis of human erythrocytes (human erythrocytes; Tables 1, 4, 7): 12.5 µg/mL; Minimum Inhibitory Concentration (activity) (S. aureus SAP0017): 9 µg/mL; Minimum Inhibitory Concentration (activity) (S. aureus K147): 9 µg/mL; Minimum Inhibitory Concentration (activity) (C. xeroses): 1 µg/mL
CC(C)C[C@@H]1NC(=O)[C@H](CCCCN)NC(=O)[C@H](C(C)C)NC(=O)[C@@H]2CCCN2C(=O)[C@@H](Cc2ccccc2)NC(=O)[C@H](CC(C)C)NC(=O)[C@H](CCCCN)NC(=O)[C@H](C(C)C)NC(=O)[C@H](CCCCN)NC(=O)[C@H](CC(C)C)NC(=O)[C@@H]2CCCN2C(=O)[C@@H](Cc2ccccc2)NC(=O)[C@H](C(C)C)NC(=O)[C@@H](CCCCN)NC1=O [Y2/F2]	–	–	–	–	–	–	–	–	–	–	–	59 µM	17 µg/mL	40 µg/mL	1.5 µg/mL	3.1 µg/mL	3.1 µg/mL	9 µg/mL	6.2 µg/mL	6.2 µg/mL	Minimum Inhibitory Concentration (activity) (S. epidermidis): 3.1 µg/mL; Minimum Inhibitory Concentration (activity) (B. subtilis): 12.5 µg/mL; Minimum Inhibitory Concentration (activity) (C. Albicans): 3.1 µg/mL; Minimum Inhibitory Concentration (activity) (S. aureus SAP0017): 9 µg/mL; Minimum Inhibitory Concentration (activity) (S. aureus K147): 12.5 µg/mL; Minimum Inhibitory Concentration (activity) (C. xeroses): 1.5 µg/mL
